According to US4742045A, “Glycopeptide antibiotics” (SmithKline Beckman Corporation, priority 1986, dated 1988):
In brackets after ≈: the same amount, converted by molar mass. Like-named read-outs stand apart in the source and are kept apart here.

Experiments:
Streptococcus pyogenes = assay: standard microtiter assay, minimum inhibitory concentration; assay type: cell-based; conditions: Streptococcus pyogenes, read-out: minimum inhibitory concentration
Description: Representative results of standard microtiter assays are reported in Tables 1, 2 and 3 which follow, as the minimum inhibitory concentration of antibiotic (μg/ml).
In Table 1, test organisms 1-13 were different strains of Staphylococcus aureus, and 14-16 were different strains of Staphylococcus epidermidis. In Table 2, test organisms 1-5 were different strains of S. aureus; 6, 8, 12 and 14 were different strains of S. epidermidis; 7 was a Staphylococcus haemolyticus; 9 and 10 were different strains of Streptococcus faecalis; 11 was a Streptococcus pyogenes; and 13 was a Staphylococcus saprophyticus. In Table 3, test organisms 1-3 were different strains of S. aureus; 4 and 6 were different strains of S. epidermidis; 5 was a S. haemolyticus and 7 and 8 were different strains of Streptococcus faecalis. Except where individual components are indicated, the CWI-785 antibiotic employed was the CWI-785 complex; in some cases, HCl salts of the CWI-785 antibiotic were employed.

S. aureus = assay: mice infected intraperitoneally, dosed 1 hr after infection, ED50; assay type: in vivo; conditions: Staphylococcus aureus, 1 h, antibiotic i.v. 1 hr post infection
Procedure: (§1) The in vivo activity of the CWI-785 complex and its components and hydrolysis products was confirmed by administering selected CWI-785 antibiotics to mice infected with various gram-positive pathogens. In one representative assay, in which mice infected intraperitoneally with 46.8 LD50 's of S. aureus (strain 1, Tables 1 and 2) were dosed once, subcutaneously one hour after infection, the following ED50 's (mg/kg) were observed: CWI-785B: 2.4, CWI-785C: 3.1, CWI-785: 3.8, HPB3: 0.9, vancomycin: 0.7. In a second representative assay carried out as above except that mice were infected with 3.17 LD50 's of S. faecalis (strain 9, Table 2), the following ED50 's were observed: HPB3 hydrochloride: 1.6, HPB4 hydrochloride: 1.6, vancomycin: 2.2, teicoplanin: 1.3.
(§2) In Table 6, below, is shown the ED50 in mg/kg of HPB4 in comparison to vancomycin and teicoplanin. Mice were injected i.p. with the indicated organism and then i.v., 1 hr post infection, with the indicated antibiotic.

S. faecalis = assay: as above; assay type: in vivo; conditions: Enterococcus faecalis, 1 h
Procedure: as §1, §2

S. haemolyticus = assay: mice infected i.p., antibiotic i.v. 1 hr post infection, ED50; assay type: in vivo; conditions: Staphylococcus haemolyticus, 1 h
Procedure: as §2

S. epidermidis = assay: as above; assay type: in vivo; conditions: Staphylococcus epidermidis, 1 h
Procedure: as §2

STAPH. AUREUS HH 127 = assay: prophylactic activity, dosing preinfection; assay type: in vivo, mice; conditions: for ED50: Staphylococcus aureus, in Mus musculus
Streptococcus faecalis = assay: standard microtiter assay, minimum inhibitory concentration; assay type: cell-based
In short: (§3)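 Standard microtiter broth assays, with MIC reported in μg/ml and averaged over several strains per species. The CWI-785 complex was tested, in some cases as HCl salts. Some runs used no serum, 50% human serum or 50% mouse serum.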

Staphylococcus aureus = assay: as above; assay type: cell-based
In short: as §3

Group A Strep. = assay: MIC against an expanded panel; assay type: cell-based; conditions: Table 4, Group A Strep. (6 strains)
Description: (§4) The number of strains tested is shown in parentheses below each organism. The average MIC is reported in μg/ml.

Viridans = assay: MIC against an expanded panel; assay type: cell-based; conditions: Table 4, Viridans (2 strains)
Description: as §4

JK Diptheroids = assay: MIC against an expanded panel; assay type: cell-based; conditions: Table 4, JK Diptheroids (19 strains)
Description: as §4

Coag-neg. Staphylococci = assay: MIC against an expanded panel; assay type: cell-based; conditions: Table 4, Coag-neg. Staphylococci (24 strains)
Description: as §4

Group B Strep. = assay: MIC against an expanded panel; assay type: cell-based; conditions: Table 4, Group B Strep. (4 strains)
Description: as §4

[1] = tested on: Staphylococcus haemolyticus; assay: standard microtiter assay, minimum inhibitory concentration; assay type: cell-based; conditions: Staphylococcus haemolyticus
In short: (§5)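 Broth microtiter MIC (μg/ml) of CWI-785 antibiotic, as complex, individual components or HCl salts, against several staphylococcal strains. Some assays run without serum or in 50% human or 50% mouse serum.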

[2] = tested on: Staphylococcus saprophyticus; assay: as above; assay type: cell-based; conditions: Staphylococcus saprophyticus
In short: as §5

CN[C@H](CC(C)C)C(=O)N[C@H]1C(=O)N[C@@H](CC(N)=O)C(=O)N[C@H]2C(=O)N[C@H]3C(=O)N[C@H](C(=O)N[C@H](C(=O)O)c4cc(O)cc(O)c4-c4cc3ccc4O)[C@H](O)c3ccc(c(Cl)c3)Oc3cc2cc(c3O[C@@H]2O[C@H](CO)[C@@H](O)[C@H](O)[C@H]2O[C@H]2C[C@](C)(N)[C@H](O)[C@H](C)O2)Oc2ccc(cc2Cl)[C@H]1O [Vancomycin, vancomycin]
MIC (Streptococcus pyogenes): 0.8 µg/mL (≈ 0.552 µM) | ED50 (S. aureus; S. aureus 2620 (24 × LD50) i.p.): 1.4 mg/kg | ED50 (S. aureus; S. aureus HH 127 (35 × LD50) i.p.): 0.4 mg/kg | ED50 (S. faecalis): 1.3 mg/kg | ED50 (S. haemolyticus): 10 mg/kg | ED50 (S. epidermidis): < 1.25 mg/kg | ED50 (STAPH. AUREUS HH 127; iv): 0.156 mg/kg | ED50 (STAPH. AUREUS HH 127; sc): 0.31 mg/kg | PERCENT SURVIVAL (STAPH. AUREUS HH 127; Table 7: 40 mg/kg, 4 hr preinfection, S.C.): 20% | PERCENT SURVIVAL (STAPH. AUREUS HH 127; Table 8: 40 mg/kg (I.V.), 6 hr preinfection): 10% | MIC50 (Streptococcus faecalis; Enterococcus faecalis): 0.4 µg/mL (≈ 0.276 µM) | MIC (Streptococcus faecalis; Enterococcus faecalis, Table 5 organism 7 S. faecalis, 50% Hum. Serum): 3.1 µg/mL (≈ 2.14 µM) | MIC (Streptococcus faecalis; Enterococcus faecalis, Table 5 organism 7 S. faecalis, 50% Mse. Serum): 6.3 µg/mL (≈ 4.35 µM) | MIC (Streptococcus faecalis; Enterococcus faecalis, Table 5 organism 7 S. faecalis, No Serum): 1.6 µg/mL (≈ 1.1 µM) | MIC (Streptococcus faecalis; Enterococcus faecalis, Table 5 organism 8 S. faecalis, 50% Hum. Serum): 3.1 µg/mL (≈ 2.14 µM) | MIC (Streptococcus faecalis; Enterococcus faecalis, Table 5 organism 8 S. faecalis, 50% Mse. Serum): 6.3 µg/mL (≈ 4.35 µM) | MIC (Streptococcus faecalis; Enterococcus faecalis, Table 5 organism 8 S. faecalis, No Serum): 1.6 µg/mL (≈ 1.1 µM) | MBC (Streptococcus faecalis; Enterococcus faecalis, read-out: MBC50): 50 µg/mL (≈ 34.5 µM) | MIC (Streptococcus faecalis; Enterococcus faecalis, read-out: minimum inhibitory concentration, Table 2 test organism 9, Streptococcus faecalis strain): 1.6 µg/mL (≈ 1.1 µM) | MIC (Streptococcus faecalis; Enterococcus faecalis, read-out: minimum inhibitory concentration, Table 2 test organism 10, Streptococcus faecalis strain): 1.6 µg/mL (≈ 1.1 µM) | MIC RANGE (Streptococcus faecalis; Table 4, Strep. faecalis (12 strains)): 0.4 to 0.8 µg/mL | MIC50 (Staphylococcus aureus; Staphylococcus aureus): 1.6 µg/mL (≈ 1.1 µM) | MIC (Staphylococcus aureus; Staphylococcus aureus, Table 5 organism 1 S. aureus, 50% Hum. Serum): 3.1 µg/mL (≈ 2.14 µM) | MIC (Staphylococcus aureus; Staphylococcus aureus, Table 5 organism 1 S. aureus, 50% Mse. Serum): 1.6 µg/mL (≈ 1.1 µM) | MIC (Staphylococcus aureus; Staphylococcus aureus, Table 5 organism 1 S. aureus, No Serum): 1.6 µg/mL (≈ 1.1 µM) | MIC (Staphylococcus aureus; Staphylococcus aureus, read-out: minimum inhibitory concentration, Table 1 test organism 1, S. aureus strain): 1.6 µg/mL (≈ 1.1 µM) | MIC (Staphylococcus aureus; Staphylococcus aureus, read-out: minimum inhibitory concentration, Table 1 test organism 2, S. aureus strain): 1.6 µg/mL (≈ 1.1 µM) | MIC (Staphylococcus aureus; Staphylococcus aureus, read-out: minimum inhibitory concentration, Table 1 test organism 3, S. aureus strain): 1.6 µg/mL (≈ 1.1 µM) | MIC (Staphylococcus aureus; Staphylococcus aureus, read-out: minimum inhibitory concentration, Table 1 test organism 4, S. aureus strain): 1.6 µg/mL (≈ 1.1 µM) | MIC (Staphylococcus aureus; Staphylococcus aureus, read-out: minimum inhibitory concentration, Table 1 test organism 5, S. aureus strain): 1.6 µg/mL (≈ 1.1 µM) | MIC (Staphylococcus aureus; Staphylococcus aureus, read-out: minimum inhibitory concentration, Table 1 test organism 6, S. aureus strain): 1.6 µg/mL (≈ 1.1 µM) | MIC (Staphylococcus aureus; Staphylococcus aureus, read-out: minimum inhibitory concentration, Table 1 test organism 7, S. aureus strain): 3.1 µg/mL (≈ 2.14 µM) | MIC (Staphylococcus aureus; Staphylococcus aureus, read-out: minimum inhibitory concentration, Table 1 test organism 8, S. aureus strain): 1.6 µg/mL (≈ 1.1 µM) | MIC (Staphylococcus aureus; Staphylococcus aureus, read-out: minimum inhibitory concentration, Table 1 test organism 9, S. aureus strain): 1.6 µg/mL (≈ 1.1 µM) | MIC (Staphylococcus aureus; Staphylococcus aureus, read-out: minimum inhibitory concentration, Table 1 test organism 10, S. aureus strain): 1.6 µg/mL (≈ 1.1 µM) | MIC (Staphylococcus aureus; Staphylococcus aureus, read-out: minimum inhibitory concentration, Table 1 test organism 11, S. aureus strain): 1.6 µg/mL (≈ 1.1 µM) | MIC (Staphylococcus aureus; Staphylococcus aureus, read-out: minimum inhibitory concentration, Table 1 test organism 12, S. aureus strain): 1.6 µg/mL (≈ 1.1 µM) | MIC (Staphylococcus aureus; Staphylococcus aureus, read-out: minimum inhibitory concentration, Table 1 test organism 13, S. aureus strain): 0.8 µg/mL (≈ 0.552 µM) | MIC (Staphylococcus aureus; Staphylococcus aureus, read-out: minimum inhibitory concentration, Table 2 test organism 1, S. aureus strain): 1.6 µg/mL (≈ 1.1 µM) | MIC (Staphylococcus aureus; Staphylococcus aureus, read-out: minimum inhibitory concentration, Table 2 test organism 2, S. aureus strain): 1.6 µg/mL (≈ 1.1 µM) | MIC (Staphylococcus aureus; Staphylococcus aureus, read-out: minimum inhibitory concentration, Table 2 test organism 3, S. aureus strain): 1.6 µg/mL (≈ 1.1 µM) | MIC (Staphylococcus aureus; Staphylococcus aureus, read-out: minimum inhibitory concentration, Table 2 test organism 4, S. aureus strain): 1.6 µg/mL (≈ 1.1 µM) | MIC (Staphylococcus aureus; Staphylococcus aureus, read-out: minimum inhibitory concentration, Table 2 test organism 5, S. aureus strain): 1.6 µg/mL (≈ 1.1 µM) | MIC RANGE (Staphylococcus aureus; Table 4, S. aureus (30 strains)): 1.6 to 6.3 µg/mL | MIC RANGE (Group A Strep.): 0.04 to 0.8 µg/mL | MIC50 (Group A Strep.; read-out: MIC50): 0.4 µg/mL (≈ 0.276 µM) | MIC RANGE (Viridans): 0.05 to 0.8 µg/mL | MIC RANGE (JK Diptheroids): 0.8 to 1.6 µg/mL | MIC50 (JK Diptheroids; read-out: MIC50): 1.6 µg/mL (≈ 1.1 µM) | MIC RANGE (Coag-neg. Staphylococci): 0.4 to 6.3 µg/mL | MIC50 (Coag-neg. Staphylococci; read-out: MIC50): 3.1 µg/mL (≈ 2.14 µM) | MIC RANGE (Group B Strep.): 0.4 to 0.8 µg/mL | MIC ([1]; Table 5 organism 3 S. haemolyticus, 50% Hum. Serum): 3.1 µg/mL (≈ 2.14 µM) | MIC ([1]; Table 5 organism 3 S. haemolyticus, 50% Mse. Serum): 6.3 µg/mL (≈ 4.35 µM) | MIC ([1]; Table 5 organism 3 S. haemolyticus, No Serum): 3.1 µg/mL (≈ 2.14 µM) | MIC ([1]; read-out: minimum inhibitory concentration, Table 2 test organism 7, Staphylococcus haemolyticus): 3.1 µg/mL (≈ 2.14 µM) | MIC ([2]; Table 5 organism 6 S. saprophyticus, 50% Hum. Serum): 3.1 µg/mL (≈ 2.14 µM) | MIC ([2]; Table 5 organism 6 S. saprophyticus, 50% Mse. Serum): 6.3 µg/mL (≈ 4.35 µM) | MIC ([2]; Table 5 organism 6 S. saprophyticus, No Serum): 1.6 µg/mL (≈ 1.1 µM) | MIC ([2]; read-out: minimum inhibitory concentration, Table 2 test organism 13, Staphylococcus saprophyticus): 1.6 µg/mL (≈ 1.1 µM)
